Data: the NIST ThermoML archive (doi:10.1021/acs.jced.8b00771)
Numbers after ± are expanded uncertainties.

Assay: molar heat capacity at constant pressure
Conditions: 100 kPa, Extra sensitive DSC

CCn1cc[n+](C)c1.[Cl-] [1-ethyl-3-methylimidazolium chloride]
molar heat capacity at constant pressure (293.15 K, Crystal): 216.99 ± 12 J/K/mol
molar heat capacity at constant pressure (303.15 K, Crystal): 221.39 ± 12 J/K/mol
molar heat capacity at constant pressure (313.15 K, Crystal): 224.33 ± 12 J/K/mol
molar heat capacity at constant pressure (363.15 K, Liquid): 284.44 ± 13 J/K/mol
molar heat capacity at constant pressure (373.15 K, Liquid): 291.77 ± 13 J/K/mol
